Measured values taken from the supplement of paper PMC4862054.

What was measured:
Conditions in all cases: incubation time: 72 h
[1] = system: MDA-MB-231; assay: normalised response (% of control), CellTox Green; higher = less cell death (100 = DMSO, 0 = benzethonium chloride kill control)
Procedure, shortened: (§1)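 A 20 µl suspension of breast cancer cells was seeded into each well of 384-well plates containing compound at 5 concentrations in 10-fold steps over a compound-specific 10,000-fold range. After 72 h incubation, CellTox Green fluorescence (485/520 nm) was read first, and CellTiter-Glo luminescence was read after 10 min at room temperature. Each plate was normalised against 0.1 % DMSO (100) and a positive kill control (0), and each value is the normalised signal at one concentration.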

[2] = system: CAL-85-1; assay: as above
Procedure, shortened: as §1

[3] = system: MDA-MB-468; assay: as above
Procedure, shortened: as §1

[4] = system: CAL-148; assay: as above
Procedure, shortened: as §1

[5] = system: HCC1599; assay: as above
Procedure, shortened: as §1

[6] = system: MDA-MB-436; assay: as above
Procedure, shortened: as §1

[7] = system: HCC1937; assay: as above
Procedure, shortened: as §1

[8] = system: CAL-51; assay: as above
Procedure, shortened: as §1

[9] = system: BT-474; assay: as above
Procedure, shortened: as §1

[10] = system: MCF-10A; assay: as above
Procedure, shortened: as §1

[11] = system: CAL-120; assay: as above
Procedure, shortened: as §1

[12] = system: DU-4475; assay: as above
Procedure, shortened: as §1

[13] = system: MDA-MB-453; assay: as above
Procedure, shortened: as §1

[14] = system: BT-549; assay: as above
Procedure, shortened: as §1

[15] = system: MFM-223; assay: as above
Procedure, shortened: as §1

[16] = system: HDQ-P1; assay: normalised viability (% of control), CellTiter-Blue; higher = more viable cells (about 100 = DMSO control)
Protocol: (§2)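 DSRT, CellTiter-Blue viability, 72 h incubation. Signal is normalised to DMSO and benzethonium chloride controls. Value is the normalised response at dose 7.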

[17] = system: CAL-85-1; assay: as above
Protocol: as §2

[18] = system: CAL-148; assay: as above
Protocol: as §2

[19] = system: CAL-51; assay: as above
Protocol: as §2

[20] = system: DU-4475; assay: as above
Protocol: as §2

[21] = system: MDA-MB-453; assay: as above
Protocol: as §2

[22] = system: HCC1143; assay: normalised response (% of control), CellTox Green; higher = less cell death (100 = DMSO, 0 = benzethonium chloride kill control)
Procedure, shortened: as §1

[23] = system: HDQ-P1; assay: as above
Procedure, shortened: as §1

[24] = system: Hs578T; assay: as above
Procedure, shortened: as §1

Row | SMILES | normalised response [1] [%] | normalised response [2] [%] | normalised response [3] [%] | normalised response [4] [%] | normalised response [5] [%] | normalised response [6] [%] | normalised response [7] [%] | normalised response [8] [%] | normalised response [9] [%] | normalised response [10] [%] | normalised response [11] [%] | normalised response [12] [%] | normalised response [13] [%] | normalised response [14] [%] | normalised response [15] [%] | normalised viability [16] [%] | normalised viability [17] [%] | normalised viability [18] [%] | normalised viability [19] [%] | normalised viability [20] [%] | normalised viability [21] [%] | normalised response [22] [%] | normalised response [23] [%] | normalised response [24] [%]
1 | Cc1ccc(C(=O)N(CCCN)[C@@H](c2oc3cc(Cl)ccc3c(=O)c2Cc2ccccc2)C(C)C)cc1 (100 nM) | 87.5 | 99.9 | 59.9 | 106 | 99.7 | 105 | 84.6 | 74.4 | 102 | 80 | 98.8 | 95.1 | 93.5 | 91.1 | 90.5 | 72.5 | 30.1 | 18.9 | 34.7 | 43 | 25.4 |  |  | 
2 | CO[C@H]1/C=C\C=C(/C)C(=O)NC2=CC(=O)C(NCCN(C)C)=C(C[C@@H](C)C[C@H](OC)[C@H](O)[C@@H](C)/C=C(\C)[C@@H]1OC(N)=O)C2=O [Alvespimycin] (100 nM) | 67.9 | 71.6 | 104 | 48.7 | 107 | 89.6 | 118 | 60.4 | 76.6 | 33.3 | 95 | 68.1 | 91.4 | 130 | 89.6 | 38 | 33.1 | 15.6 | 34.7 | 0.89 | 6.21 | 69.1 | 75.2 | 101
3 | CCC1(c2ccc(N)cc2)CCC(=O)NC1=O (stereo not given) [Aminoglutethimide] (1000 nM) | 76.7 | 105 | 177 | 104 | 96.2 | 98.2 | 97.3 | 83.5 | 102 | 109 | 99.8 | 99.2 | 101 | 117 | 97.6 | 79.3 | 95.2 | 113 | 91 | 86.1 | 88.8 | 106 | 104 | 71.8
4 | Cn1c(CCCC(=O)O)nc2cc(N(CCCl)CCCl)ccc21 [Bendamustine] (1000 nM) | 117 | 101 | 121 | 101 | 101 | 81.8 | 119 | 116 | 103 | 67.1 | 99.9 | 103 | 104 | 119 | 105 | 108 | 86.3 | 117 | 109 | 112 | 102 | 84.8 | 95.9 | 
5 | C=C(c1ccc(C(=O)O)cc1)c1cc2c(cc1C)C(C)(C)CCC2(C)C [Bexarotene] (1000 nM) | 114 | 95.7 | 111 | 75.7 | 107 | 98.4 | 94.8 | 110 | 99.1 | 85 | 99.6 | 99.3 | 84.4 | 98.8 | 103 | 76 | 84.5 | 96.6 | 80.6 | 116 | 86.5 | 83.9 | 95.3 | 
6 | COc1cc2nccc(Oc3ccc(NC(=O)C4(C(=O)Nc5ccc(F)cc5)CC4)cc3)c2cc1OC [Cabozantinib] (100 nM) | 103 | 106 | 136 | 102 | 92.3 |  | 120 | 100 | 100 | 88.3 | 98.2 | 97.5 | 99.4 | 101 | 96.3 | 85.5 | 79.6 | 107 | 102 | 91.8 | 95.3 |  | 91.5 | 102
7 | C[C@@H](Oc1cc(-c2cnn(C3CCNCC3)c2)cnc1N)c1c(Cl)ccc(F)c1Cl [Crizotinib] (1000 nM) | 115 | 76.1 | 123 | 97.2 | 111 | 57.6 | 87 | 83.6 | 98.9 | 95.9 | 102 | 107 | 98.3 | 131 | 78.6 | 92.5 | 86.9 | 96.4 | 108 | 108 | 91.9 | 131 | 72.7 | 103
8 | Cc1ccc(-n2nc(C(C)(C)C)cc2NC(=O)Nc2ccc(OCCN3CCOCC3)c3ccccc23)cc1 [Doramapimod] (1000 nM) | 102 | 113 | 122 | 104 | 83.8 | 87.7 | 109 | 101 | 97.6 | 101 | 96.1 | 95.2 | 105 | 93.2 | 100 | 66.7 | 73.5 | 105 | 101 | 122 | 87.9 | 104 | 89.6 | 82.6
